According to patent US11142527B2, “Dihydropyrimidine compounds and uses thereof in medicine” (SUNSHINE LAKE PHARMA CO., LTD., priority 2017, dated 2021):

Experiments:
[1] = system: HBV; experiment: Test of anti HBV activity in vitro (viral DNA by qPCR); type: cell-based; conditions: Hepatitis B virus; HepG2.2.15 cells, viral DNA in cell culture supernatant by qPCR; read-out: EC50 values of the compound of the invention on viral replication
How it was run: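 HepG2.2.15 cells (integrated HBV genome) were grown to confluence, then treated with compound in 4-fold dilutions from 4 μM final (0.5% DMSO). Secreted viral DNA in supernatant was quantified by SYBR qPCR against an HBV plasmid standard curve; EC50 from four-parameter nonlinear regression of concentration versus copy number.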

[2] = Cytotoxicity test with CellTiter Glo; type: cell-based; conditions: human, HepG2.2.15 cells, highest concentration 150 μM, read-out: CC50 values of the compounds of the invention
Method: Test 2: Cytotoxicity and Selectivity Index
Methods of Testing Cytotoxicity and Selectivity Index
The serial diluted compound was added to a 384 wells plate at 50 μL HepG2.2.15 cell per well (3000 cells per well), the highest final concentration in the experiment is 150 μM (200 fold dilution). The plate was cultured at 37° C. in an incubator with CO2 for 4 days, and cytotoxicity of the compound was detected using CellTiter Glo agent.
The cytotoxicity of the compound was calculated using the following formulate, cytotoxicity (%)=100−(detection value/mean of DMSO control wells values×100) CC50 values were calculated by a four parametric nonlinear regression model using Graphpad Prism 5 software to manage concentration−cytotoxicity (%).

SMILES	EC50 [1]	CC50 at 4 days [2]
COC(=O)C1=C(CN2CCN3C(=O)N(c4ccc(Oc5ccc(C(=O)N6CC(O)C6)cc5)cc4)C[C@@H]3C2)NC(c2nccs2)=N[C@H]1c1ccc(F)cc1Cl [Example 61, (R)-methyl 4-(2-chloro-4-fluorophenyl)-6-(((S)-2-(4-(4-(3-hydroxyazetidine-1-carbonyl)phenoxy)phenyl)-3-oxohexahydroimidazo[1,5-a]pyrazin-7(1H)-yl)methyl)-2-(thiazol-2-yl)-1,4-dihydropyrimidine-5-carboxylate]	0.015 µM	> 150 µM
COC(=O)C1=C(CN2CCN3C(=O)N(c4ccc(Oc5ccc(C(=O)N(CCO)Cc6ccccc6)cc5)cc4)C[C@@H]3C2)NC(c2nccs2)=N[C@H]1c1ccc(F)cc1Cl [Example 63, (R)-methyl 6-(((S)-2-(4-(4-(benzyl(2-hydroxyethyl)carbamoyl)phenoxy)phenyl)-3-oxohexahydroimidazo[1,5-a]pyrazin-7(1H)-yl)methyl)-4-(2-chloro-4-fluorophenyl)-2-(thiazol-2-yl)-1,4-dihydropyrimidine-5-carboxylate]	0.0276 µM	> 150 µM
COC(=O)C1=C(CN2CCN3C(=O)N(c4ccc(Oc5ccc(C(=O)N(CCO)CCO)cc5)cc4)C[C@@H]3C2)NC(c2nccs2)=N[C@H]1c1ccc(F)cc1Cl [Example 64, (R)-methyl 6-(((S)-2-(4-(4-(bis(2-hydroxyethyl)carbamoyl)phenoxy)phenyl)-3-oxohexahydroimidazo[1,5-a]pyrazin-7(1H)-yl)methyl)-4-(2-chloro-4-fluorophenyl)-2-(thiazol-2-yl)-1,4-dihydropyrimidine-5-carboxylate]	0.0249 µM	> 150 µM
COC(=O)C1=C(CN2CCN3C(=O)N(c4ccc(Oc5ccc(C(=O)NC(C)(C)CO)cc5)cc4)C[C@@H]3C2)NC(c2nccs2)=N[C@H]1c1ccc(F)cc1Cl [Example 68, (R)-methyl 4-(2-chloro-4-fluorophenyl)-6-(((S)-2-(4-(4-((1-hydroxy-2-methylprop-2-yl)carbamoyl)phenoxy)phenyl)-3-oxohexahydroimidazo[1,5-a]pyrazin-7(1H)-yl)methyl)-2-(thiazol-2-yl)-1,4-dihydropyrimidine-5-carboxylate]	0.0111 µM	> 150 µM
COCC(C)(C)NC(=O)c1ccc(Oc2ccc(N3C[C@@H]4CN(CC5=C(C(=O)OC)[C@H](c6ccc(F)cc6Cl)N=C(c6nccs6)N5)CCN4C3=O)cc2)cc1 [Example 70, (R)-methyl 4-(2-chloro-4-fluorophenyl)-6-(((S)-2-(4-(4-((1-methoxy-2-methylprop-2-yl)carbamoyl)phenoxy)phenyl)-3-oxohexahydroimidazo[1,5-a]pyrazin-7(1H)-yl)methyl)-2-(thiazol-2-yl)-1,4-dihydropyrimidine-5-carboxylate]	0.0159 µM	> 150 µM
COC(=O)C1=C(CN2CCN3C(=O)N(c4ccc(Oc5ccc(C(=O)NCCCC(=O)N(C)C)cc5)cc4)C[C@@H]3C2)NC(c2nccs2)=N[C@H]1c1ccc(F)cc1Cl [Example 71, (R)-methyl 4-(2-chloro-4-fluorophenyl)-6-(((S)-2-(4-(4-((4-(dimethylamino)-4-oxobutyl)carbamoyl)phenoxy)phenyl)-3-oxohexahydroimidazo[1,5-a]pyrazin-7(1H)-yl)methyl)-2-(thiazol-2-yl)-1,4-dihydropyrimidine-5-carboxylate]	0.0166 µM	> 150 µM
COC(=O)C1=C(CN2CCN3C(=O)N(c4ccc(Oc5ccc(C(=O)NC(C)CO)cc5)cc4)C[C@@H]3C2)NC(c2nccs2)=N[C@H]1c1ccc(F)cc1Cl (stereo partly drawn) [Example 72, (4R)-methyl 4-(2-chloro-4-fluorophenyl)-6-(((8aS)-2-(4-(4-((1-hydroxyprop-2-yl)carbamoyl)phenoxy)phenyl)-3-oxohexahydroimidazo[1,5-a]pyrazin-7(1H)-yl)methyl)-2-(thiazol-2-yl)-1,4-dihydropyrimidine-5-carboxylate]	0.0212 µM	> 150 µM
COC(=O)C1=C(CN2CCN3C(=O)N(c4ccc(Oc5ccc(C(=O)N6CCO[C@H](CCC(=O)O)C6)cc5)cc4)C[C@@H]3C2)NC(c2nccs2)=N[C@H]1c1ccc(F)cc1Cl [Example 74, 3-((R)-4-(4-(4-(((S)-7-((R)-6-(2-chloro-4-fluorophenyl)-5-(methoxycarbonyl)-2-(thiazol-2-yl)-3,6-dihydropyrimidin-4-yl)methyl)-3-oxohexahydroimidazo[1,5-a]pyrazin-2(3H)-yl)phenoxy)benzoyl)morpholin-2-yl)propanoic acid]	0.0307 µM	> 150 µM
COC(=O)C1=C(CN2CCN3C(=O)N(c4ccc(N5CCOC(C(=O)O)C5)cc4)C[C@@H]3C2)NC(c2nccs2)=N[C@H]1c1ccc(F)cc1Cl (stereo partly drawn) [Example 77, 4-(4-((S)-7-(((R)-6-(2-chloro-4-fluorophenyl)-5-(methoxycarbonyl)-2-(thiazol-2-yl)-3,6-dihydropyrimidin-4-yl)methyl)-3-oxohexahydroimidazo[1,5-a]pyrazin-2(3H)-yl)phenyl)morpholine-2-carboxylic acid]	0.0097 µM	> 150 µM
COC(=O)C1=C(CN2CCN3C(=O)N(c4ccc(Oc5cc(F)cc(C(=O)O)c5)cn4)C[C@@H]3C2)NC(c2nccs2)=N[C@H]1c1ccc(F)cc1Cl [Example 79, 3-((6-((S)-7-(((R)-6-(2-chloro-4-fluorophenyl)-5-(methoxycarbonyl)-2-(thiazol-2-yl)-3,6-dihydropyrimidin-4-yl)methyl)-3-oxohexahydroimidazo[1,5-a]pyrazin-2(3H)-yl)pyridin-3-yl)oxy)-5-fluorobenzoic acid]	0.029 µM	> 150 µM
COC(=O)C1=C(CN2CCN3C(=O)N(c4ccc(=O)n(-c5ccc(C(=O)O)cc5F)c4)C[C@@H]3C2)NC(c2nccs2)=N[C@H]1c1ccc(F)cc1Cl [Example 80, 4-(5-((S)-7-(((R)-6-(2-chloro-4-fluorophenyl)-5-(methoxycarbonyl)-2-(thiazol-2-yl)-3,6-dihydropyrimidin-4-yl)methyl)-3-oxohexahydroimidazo[1,5-a]pyrazin-2(3H)-yl)-2-oxopyridin-1(2H)-yl)-3-fluorobenzoic acid]	0.0158 µM	> 150 µM
COC(=O)C1=C(CN2CCN3C(=O)N(c4cc(F)cc(Oc5ccc(C(=O)O)cc5F)c4)C[C@@H]3C2)NC(c2nccs2)=N[C@H]1c1cccc(F)c1Cl [Example 90, 4-(3-((S)-7-(((R)-6-(2-chloro-3-fluorophenyl)-5-(methoxycarbonyl)-2-(thiazol-2-yl)-3,6-dihydropyrimidin-4-yl)methyl)-3-oxohexahydroimidazo[1,5-a]pyrazin-2(3H)-yl)-5-fluorophenoxy)-3-fluorobenzoic acid]	0.0125 µM	> 150 µM
COC(=O)C1=C(CN2CCN3C(=O)N(c4ccc(Sc5ccc(C(=O)O)cc5)cc4)C[C@@H]3C2)NC(c2nccs2)=N[C@H]1c1ccc(F)cc1Cl [Example 91, 4-((4-((S)-7-(((R)-6-(2-chloro-4-fluorophenyl)-5-(methoxycarbonyl)-2-(thiazol-2-yl)-3,6-dihydropyrimidin-4-yl)methyl)-3-oxohexahydroimidazo[1,5-a]pyrazin-2(3H)-yl)phenyl)thio)benzoic acid]	0.0377 µM	> 150 µM
COC(=O)C1=C(CN2CCN3C(=O)N(c4cc(F)cc(Oc5ccc(C(=O)O)cc5F)c4)C[C@@H]3C2)NC(c2nccs2)=N[C@H]1c1ccccc1Cl [Example 93, 4-(3-((S)-7-(((R)-6-(2-chlorophenyl)-5-(methoxycarbonyl)-2-(thiazol-2-yl)-3,6-dihydropyrimidin-4-yl)methyl)-3-oxohexahydroimidazo[1,5-a]pyrazin-2(3H)-yl)-5-fluorophenoxy)-3-fluorobenzoic acid]	0.0215 µM	> 150 µM
COC(=O)C1=C(CN2CCN3C(=O)N(c4ccc(Oc5ccc(C#N)cc5)cc4)C[C@@H]3C2)NC(c2nccs2)=N[C@H]1c1ccc(F)cc1Cl [Example 97, (R)-methyl 4-(2-chloro-4-fluorophenyl)-6-(((S)-2-(4-(4-cyanophenoxy)phenyl)-3-oxohexahydroimidazo[1,5-a]pyrazin-7(1H)-yl)methyl)-2-(thiazol-2-yl)-1,4-dihydropyrimidine-5-carboxylate]	0.0368 µM	> 150 µM
COC(=O)C1=C(CN2CCN3C(=O)N(c4ccc(Sc5ccc(C#N)cc5)cc4)C[C@@H]3C2)NC(c2nccs2)=N[C@H]1c1ccc(F)cc1Cl [Example 98, (R)-methyl 4-(2-chloro-4-fluorophenyl)-6-(((S)-2-(4-((4-cyanophenyl)thio)phenyl)-3-oxohexahydroimidazo[1,5-a]pyrazin-7(1H)-yl)methyl)-2-me (thiazol-2-yl)-1,4-dihydropyrimidine-5-carboxylate]	0.0119 µM	> 150 µM
COC(=O)C1=C(CN2CCN3C(=O)N(c4ccc(Oc5ccc(CO)cc5)cc4)C[C@@H]3C2)NC(c2nccs2)=N[C@H]1c1ccc(F)cc1Cl [Example 99, (R)-methyl 4-(2-chloro-4-fluorophenyl)-6-(((S)-2-(4-(4-(hydroxymethyl)phenoxy)phenyl)-3-oxohexahydroimidazo[1,5-a]pyrazin-7(1H)-yl)methyl)-2-(thiazol-2-yl)-1,4-dihydropyrimidine-5-carboxylate]	0.0126 µM	> 150 µM
